Test systems include A549; BT-549; HOP-62; HOP-92; HT-29; IGROV-1; K562; LOX IMVI; MDA-N; Malme-3M; NCI-H460; OVCAR-8; PC-3; RPMI-8226; SK-MEL-2; SK-OV-3; SNB-19; SW-620; T47D; U-251.
Holding throughout (experiment): NCI anticancer screen, dose series, 48 h

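Where inhibition never reached the appropriate level, the endpoint shown equals the highest concentration tested. Otherwise, values were interpolated linearly from a five-concentration, 48-hour dose response in 96-well plates. The concentration for 50% growth inhibition is given as GI50.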 Calls of active or inactive are those of the source. Rule as the data show it: active = GI50 up to about 1.1 µM and inactive = higher.

As for `COC(=O)CCCc1nc2ccccc2nc1/N=N/c1ccccc1`, the GI50 in the test with A549 was 29.9 µM (inactive); with BT-549, 53.7 µM (inactive); with HOP-62, 52.5 µM (inactive); with HOP-92 it was > 100 µM (inactive); with HT-29, 32.1 µM (inactive); with IGROV-1, 25.5 µM (inactive). Besides, the GI50 with K562 is 19.3 µM (inactive); in the test on LOX IMVI it was 16.6 µM (inactive); in the test on MDA-N it was 48.2 µM (inactive); in the test with Malme-3M, 17.4 µM (inactive); with NCI-H460, 49.8 µM (inactive); in the test on OVCAR-8, 22 µM (inactive). Also, the GI50 in the test with PC-3 was 39.5 µM (inactive); in the test on RPMI-8226 it was 22.9 µM (inactive); in the test on SK-MEL-2, > 100 µM (inactive); in the test with SK-OV-3, > 100 µM (inactive); with SNB-19, 56 µM (inactive); with SW-620, 47.5 µM (inactive). The GI50 in the test with T47D was 45.7 µM (inactive); in the test with U-251, 53.6 µM (inactive).

For the compound `COc1ccc(/C=N/c2ccc(-c3nc4ccccc4[nH]3)cc2)cc1OC`, the GI50 in the test with A549 is > 100 µM (inactive); in the test on BT-549, 89.1 µM (inactive); in the test with HOP-62, > 100 µM (inactive); with HOP-92, 47 µM (inactive); in the test on HT-29, > 100 µM (inactive); in the test with IGROV-1, 49.3 µM (inactive). The GI50 with K562 is > 100 µM (inactive); with LOX IMVI, > 100 µM (inactive); in the test on MDA-N, > 100 µM (inactive); in the test with Malme-3M, > 100 µM (inactive); with NCI-H460, > 100 µM (inactive); in the test with OVCAR-8, 39.6 µM (inactive). The GI50 with PC-3, with RPMI-8226, in the test with SK-MEL-2, in the test on SK-OV-3, with SNB-19 and in the test on SW-620 was > 100 µM (inactive) throughout. Further, the GI50 in the test with T47D is > 100 µM (inactive); in the test on U-251 it was 42.5 µM (inactive).

On to `COc1cccc2c(=O)c3c(n(C)c12)OC(C(C)C)C3` (stereo not given), for which the GI50 was > 100 µM (inactive) in the test on A549; > 100 µM (inactive) in the test on BT-549; > 100 µM (inactive) in the test on HOP-62; > 100 µM (inactive) in the test with HOP-92; > 100 µM (inactive) in the test on HT-29; 42.6 µM (inactive) in the test with IGROV-1. In addition, the GI50 in the test with K562 was 27.5 µM (inactive); with LOX IMVI, > 100 µM (inactive); in the test with MDA-N, > 100 µM (inactive); with Malme-3M, > 100 µM (inactive); in the test on NCI-H460, 52.1 µM (inactive); in the test with OVCAR-8 it was > 100 µM (inactive). The GI50 in the test on PC-3 was > 100 µM (inactive); in the test on RPMI-8226, 46.7 µM (inactive); in the test on SK-MEL-2 it was > 100 µM (inactive); in the test with SK-OV-3, > 100 µM (inactive); in the test on SNB-19 it was 69.7 µM (inactive); in the test with SW-620 it was > 100 µM (inactive). For the same compound, the figures for the GI50 in the test with T47D and in the test on U-251 were 87.3 µM (inactive) and > 100 µM (inactive), respectively.

In the case of `CC1=NN(c2cccc(S(=O)(=O)O)c2)C2(C1)SCC(=O)N2c1nc2ccccc2s1` (stereo not given), the GI50 in the test on A549, in the test on BT-549, in the test with HOP-62, in the test with HOP-92, with HT-29 and in the test with IGROV-1 was > 100 µM (inactive) throughout. Besides, the GI50 is > 100 µM (inactive) in the test with K562; 88.9 µM (inactive) with LOX IMVI; > 100 µM (inactive) in the test on MDA-N; > 100 µM (inactive) with Malme-3M; > 100 µM (inactive) in the test with NCI-H460; > 100 µM (inactive) with OVCAR-8. The GI50 is > 100 µM (inactive) with PC-3; > 100 µM (inactive) in the test with RPMI-8226; > 100 µM (inactive) in the test on SK-MEL-2; > 100 µM (inactive) with SK-OV-3; > 100 µM (inactive) with SNB-19; 9.1 µM (inactive) in the test on SW-620. The GI50 with T47D and in the test on U-251 was > 100 µM (inactive) throughout.

`CC1=C(C#N)C23C(=O)c4ccccc4C(=O)C2=C(O)C=CC3(O)N1` (stereo not given): the GI50 with A549 was 1.67 µM (inactive); in the test on BT-549 it was 1.13 µM (inactive); in the test on HOP-62, 5.4 µM (inactive); with HOP-92, 2.12 µM (inactive); with HT-29, 1.23 µM (inactive); with IGROV-1, 2.38 µM (inactive). Moreover, the GI50 in the test on K562 was 1.15 µM (inactive); in the test with LOX IMVI it was 0.512 µM (active); in the test on MDA-N, 1.53 µM (inactive); in the test on Malme-3M, 1.78 µM (inactive); in the test on NCI-H460 it was 5.46 µM (inactive); in the test on OVCAR-8, 5.09 µM (inactive). Moreover, the GI50 with PC-3 was 4.57 µM (inactive); in the test with RPMI-8226, 0.658 µM (active); in the test on SK-MEL-2 it was 4.4 µM (inactive); with SK-OV-3, 52 µM (inactive); in the test on SNB-19, 4.33 µM (inactive); with SW-620 it was 0.553 µM (active). Besides, the GI50 in the test with T47D was 7.4 µM (inactive); in the test with U-251 it was 8.39 µM (inactive).

In the case of `O=C1c2cccc(NCCNCCO)c2C(=O)c2cccc(NCCNCCO)c21`, the GI50 in the test on A549 is 1.56 µM (inactive); with BT-549, 2.96 µM (inactive); in the test with HOP-62 it was 1.29 µM (inactive); in the test on HOP-92, 0.507 µM (active); in the test with HT-29, 0.52 µM (active); in the test on IGROV-1 it was 1.56 µM (inactive). Besides, the GI50 in the test on K562 is 1.12 µM (active); with LOX IMVI, 0.272 µM (active); with MDA-N it was 0.215 µM (active); with Malme-3M, 1.82 µM (inactive); with NCI-H460 it was 1.55 µM (inactive); in the test on OVCAR-8, 0.989 µM (active). For the same compound, the GI50 in the test on PC-3 was 0.733 µM (active); with RPMI-8226, 1.2 µM (inactive); in the test with SK-MEL-2, 1.28 µM (inactive); in the test with SK-OV-3, 2.26 µM (inactive); with SNB-19 it was 0.897 µM (active); in the test with SW-620, 0.714 µM (active). Besides, the GI50 with T47D is 1.69 µM (inactive); with U-251 it was 0.792 µM (active).

With `COC(=O)[C@@H]1CS(=O)(=O)C(C(C)C)N1C(C)=O` (stereo not given in full), the GI50 with A549, in the test on BT-549, with HOP-62, in the test with HOP-92, with HT-29 and in the test with IGROV-1 was > 100 µM (inactive) each time. In addition, the GI50 with K562, with LOX IMVI, with MDA-N, in the test with Malme-3M, in the test on NCI-H460 and in the test with OVCAR-8 was > 100 µM (inactive) in each case. In addition, the GI50 in the test on PC-3, in the test on RPMI-8226, in the test with SK-MEL-2, with SK-OV-3, with SNB-19 and with SW-620 was > 100 µM (inactive) throughout. The GI50 in the test with T47D and in the test with U-251 was > 100 µM (inactive) in each case.

Turning to `CC(C)(C)OC(=O)c1ccc(NCC2=C(Br)C(=O)C=CC2=O)cc1`, the GI50 in the test on A549 is 57.8 µM (inactive); with BT-549, 11.4 µM (inactive); with HOP-62 it was 37 µM (inactive); in the test with HOP-92, 14.5 µM (inactive); in the test with HT-29 it was 17.5 µM (inactive); in the test with IGROV-1 it was 24.2 µM (inactive). In addition, the GI50 with K562 is 11.7 µM (inactive); with LOX IMVI it was 14.7 µM (inactive); in the test with MDA-N, 20 µM (inactive); in the test on Malme-3M it was 14.9 µM (inactive); with NCI-H460, 36.3 µM (inactive); with OVCAR-8, 16.5 µM (inactive). For the same compound, the GI50 in the test on PC-3 was 27.4 µM (inactive); in the test with RPMI-8226, 10.3 µM (inactive); in the test on SK-MEL-2, 28.6 µM (inactive); in the test on SK-OV-3, > 64.9 µM (inactive); in the test on SNB-19, > 54.7 µM (inactive); with SW-620, 16.4 µM (inactive). For the same compound, the GI50 in the test with T47D is 17.5 µM (inactive); in the test on U-251, 22.3 µM (inactive).

`O=C(Nc1ccc2[nH]c(C(=O)N3CC(CCl)c4c3cc([N+](=O)[O-])c3ccccc43)cc2c1)c1cc2ccccc2o1` (stereo not given): the GI50 was > 100 µM (inactive) with A549; 38.2 µM (inactive) in the test with BT-549; > 100 µM (inactive) in the test on HOP-62; > 58.5 µM (inactive) in the test on HOP-92; > 100 µM (inactive) with HT-29; > 51.6 µM (inactive) with IGROV-1. The GI50 in the test on K562 was > 100 µM (inactive); in the test on LOX IMVI it was > 51.2 µM (inactive); with MDA-N it was > 100 µM (inactive); in the test with Malme-3M, > 100 µM (inactive); in the test on NCI-H460, > 37.5 µM (inactive); with OVCAR-8, > 55.6 µM (inactive). Moreover, the GI50 was > 50.6 µM (inactive) in the test with PC-3; > 100 µM (inactive) in the test on RPMI-8226; > 57 µM (inactive) in the test on SK-MEL-2; > 100 µM (inactive) with SK-OV-3; > 100 µM (inactive) in the test with SNB-19; > 58.1 µM (inactive) with SW-620. Further, the figures for the GI50 in the test with T47D and with U-251 were > 55.2 µM (inactive) and > 54.3 µM (inactive), respectively.

With `CN(CCNC(=O)c1nn(-c2ccccc2)c2c1Cc1ccccc1-2)CCNC(=O)c1nn(-c2ccccc2)c2c1Cc1ccccc1-2`, the GI50 in the test on A549 is 2.06 µM (inactive); in the test on BT-549, 4.06 µM (inactive); with HOP-62, 1.79 µM (inactive); in the test on HOP-92 it was 1.53 µM (inactive); in the test on HT-29, 1.85 µM (inactive); in the test on IGROV-1, 1.67 µM (inactive). Besides, the GI50 with K562 was 2.11 µM (inactive); in the test on LOX IMVI, 1.74 µM (inactive); in the test with MDA-N, 1.73 µM (inactive); with Malme-3M it was 1.82 µM (inactive); in the test with NCI-H460, 1.69 µM (inactive); with OVCAR-8, 1.68 µM (inactive). Moreover, the GI50 is 2.19 µM (inactive) in the test with PC-3; 4.01 µM (inactive) in the test on RPMI-8226; 1.86 µM (inactive) with SK-MEL-2; 2 µM (inactive) with SK-OV-3; 2.14 µM (inactive) in the test with SNB-19; 1.48 µM (inactive) in the test with SW-620. Besides, the values for the GI50 in the test with T47D and in the test on U-251 were 2.48 µM (inactive) and 1.71 µM (inactive), respectively.

The values are drawn from ChEMBL document CHEMBL1201862, “PubChem BioAssay data set” (2004).
